# Source: patent publication US20220387479A1, “NOVEL POVIDONE-IODINE PHARMACEUTICAL PREPARATION AND USES THEREOF” (priority 2021, published 2022)
# Where two headings read alike, the source gives them in different places.
# Tested on: SARS-CoV-2, USA-WA1/2020 strain
# Format: cell-based
# Conditions: tested conc. 50%; for LRV (log reduction value): compared to the virus control; for Virus titer: lower limit of detection 0.67
smiles,measurement,setting,value
CCO [Ethanol],LRV (log reduction value),incubation time 15 seconds,>4.0
same,Virus titer,incubation time 15 seconds,<0.67 Log10 CCID50 of virus per 0.1 mL
same,LRV (log reduction value),incubation time 30 seconds,>3.83
same,Virus titer,incubation time 30 seconds,<0.67 Log10 CCID50 of virus per 0.1 mL
same,LRV (log reduction value),incubation time 60 seconds,>4.0
same,Virus titer,incubation time 60 seconds,<0.67 Log10 CCID50 of virus per 0.1 mL
same,LRV (log reduction value),incubation time 5 minutes,>3.83
same,Virus titer,incubation time 5 minutes,<0.67 Log10 CCID50 of virus per 0.1 mL
